# From PMC5008228 (Journal of Parkinson's Disease, 2016)
# Several values for one entry are separate records, joined by “and”; a condition that tells them apart may be missing. Equal values may be shown once.
# How the values were obtained:
# Type in all cases: in vivo, human
# PDD or DLB participants [1] = assay: QTc interval by EKG; details: returned to normal range in subsequent visits
# α-synuclein = α-synuclein sandwich ELISA in CSF and plasma; details: for Plasma α-synuclein vs baseline: 2 months
# PDD or DLB participants [2] = assay: Unified Parkinson's Disease Rating Scale; details: for UPDRS-I-IV score / UPDRS-III score: individual participants; for Average decrease in UPDRS-III (motor): week 24 compared to baseline
smiles,measurement,setting,value
Cc1cn(-c2cc(NC(=O)c3ccc(C)c(Nc4nccc(-c5cccnc5)n4)c3)cc(C(F)(F)F)c2)cn1 [Nilotinib],QTc finding in participant NIL 8,PDD or DLB participants [1]; 150 mg group,slight QTc prolongation >450 ms at week 8
same,QTc finding in participant NIL 15,PDD or DLB participants [1]; 300 mg group,two episodes of QTc prolongation >450 ms at week 2 and week 8
same,Plasma α-synuclein at 6 months compared to 2 months,α-synuclein; 150 mg group,significantly higher
same,CSF α-synuclein vs baseline,"α-synuclein; 150 mg group, 2 and 6 months",slightly reduced
same,Plasma α-synuclein vs baseline,α-synuclein; 150 mg group,slightly reduced
same,CSF α-synuclein at 2 months compared to 6 months,"α-synuclein; 150 mg group, t-test",significantly (t-test) lower
same,Plasma α-synuclein vs baseline,α-synuclein; 300 mg group,significantly reduced
same,Plasma α-synuclein,"α-synuclein; 300 mg group, 6 months",returned to baseline
same,CSF α-synuclein,"α-synuclein; 300 mg group, between baseline, 2 and 6 months",unaltered
same,"UPDRS-III score, AVG","PDD or DLB participants [2]; 150 mg oral daily, Week-4, group AVG (Screening AVG 37.8)",29.4
same,UPDRS-I-IV score,"PDD or DLB participants [2]; 150 mg oral daily, Week-4",54 and 103 and 43 and 71 and 50
same,UPDRS-III score,"PDD or DLB participants [2]; 150 mg oral daily, Week-4",29 and 55 and 33 and 26
same,"UPDRS-III score, AVG","PDD or DLB participants [2]; 150 mg oral daily, Week-8, group AVG (Screening AVG 37.8)",35.6
same,"UPDRS-I-IV score, AVG","PDD or DLB participants [2]; 150 mg oral daily, Week-8, group AVG (Screening AVG 72.60)",69.00
same,UPDRS-I-IV score,"PDD or DLB participants [2]; 150 mg oral daily, Week-8",57 and 76 and 63 and 45
same,UPDRS-III score,"PDD or DLB participants [2]; 150 mg oral daily, Week-8",32 and 56 and 39 and 28 and 23
same,"UPDRS-III score, AVG","PDD or DLB participants [2]; 150 mg oral daily, Week-12, group AVG (Screening AVG 37.8)",36.6
same,"UPDRS-I-IV score, AVG","PDD or DLB participants [2]; 150 mg oral daily, Week-12, group AVG (Screening AVG 72.60)",69.40
same,UPDRS-I-IV score,"PDD or DLB participants [2]; 150 mg oral daily, Week-12",56 and 107 and 77 and 60 and 47
same,UPDRS-III score,"PDD or DLB participants [2]; 150 mg oral daily, Week-12",32 and 59 and 40 and 30 and 22
same,"UPDRS-III score, AVG","PDD or DLB participants [2]; 150 mg oral daily, Week-16, group AVG (Screening AVG 37.8)",38
same,"UPDRS-I-IV score, AVG","PDD or DLB participants [2]; 150 mg oral daily, Week-16, group AVG (Screening AVG 72.60)",70.20
same,UPDRS-I-IV score,"PDD or DLB participants [2]; 150 mg oral daily, Week-16",58 and 107 and 80 and 63 and 43
same,UPDRS-III score,"PDD or DLB participants [2]; 150 mg oral daily, Week-16",33 and 59 and 43 and 22
same,"UPDRS-III score, AVG","PDD or DLB participants [2]; 150 mg oral daily, Week-20, group AVG (Screening AVG 37.8)",36.2
same,"UPDRS-I-IV score, AVG","PDD or DLB participants [2]; 150 mg oral daily, Week-20, group AVG (Screening AVG 72.60)",67.80
same,UPDRS-I-IV score,"PDD or DLB participants [2]; 150 mg oral daily, Week-20",53 and 83 and 57 and 38
same,UPDRS-III score,"PDD or DLB participants [2]; 150 mg oral daily, Week-20",29 and 60 and 42 and 31 and 19
same,"UPDRS-III score, AVG","PDD or DLB participants [2]; 150 mg oral daily, Week-24, group AVG (Screening AVG 37.8)",34.4
same,"UPDRS-I-IV score, AVG","PDD or DLB participants [2]; 150 mg oral daily, Week-24, group AVG (Screening AVG 72.60)",65.60
same,UPDRS-I-IV score,"PDD or DLB participants [2]; 150 mg oral daily, Week-24",44 and 83 and 53 and 40
same,UPDRS-III score,"PDD or DLB participants [2]; 150 mg oral daily, Week-24",23 and 60 and 42 and 29 and 18
same,Average decrease in UPDRS I-IV,"PDD or DLB participants [2]; 150 mg oral daily, at 6 months",7 points
same,Average decrease in UPDRS-III (motor),PDD or DLB participants [2]; 150 mg oral daily,3.4 points
same,"UPDRS-III score, AVG","PDD or DLB participants [2]; 300 mg oral daily, Week-4, group AVG (Screening AVG 30.6)",28
same,"UPDRS-I-IV score, AVG","PDD or DLB participants [2]; 300 mg oral daily, Week-4, group AVG (Screening AVG 62.5)",60.8
same,UPDRS-I-IV score,"PDD or DLB participants [2]; 300 mg oral daily, Week-4",31 and 45 and 21 and 49 and 116 and 103
same,UPDRS-III score,"PDD or DLB participants [2]; 300 mg oral daily, Week-4",11 and 14 and 7 and 22 and 67 and 47
same,"UPDRS-III score, AVG","PDD or DLB participants [2]; 300 mg oral daily, Week-8, group AVG (Screening AVG 30.6)",28
same,"UPDRS-I-IV score, AVG","PDD or DLB participants [2]; 300 mg oral daily, Week-8, group AVG (Screening AVG 62.5)",60.3
same,UPDRS-I-IV score,"PDD or DLB participants [2]; 300 mg oral daily, Week-8",28 and 41 and 25 and 45 and 118 and 105
same,UPDRS-III score,"PDD or DLB participants [2]; 300 mg oral daily, Week-8",9 and 11 and 18 and 70 and 49
same,"UPDRS-III score, AVG","PDD or DLB participants [2]; 300 mg oral daily, Week-12, group AVG (Screening AVG 30.6)",26.6
same,"UPDRS-I-IV score, AVG","PDD or DLB participants [2]; 300 mg oral daily, Week-12, group AVG (Screening AVG 62.5)",57.3
same,UPDRS-I-IV score,"PDD or DLB participants [2]; 300 mg oral daily, Week-12",26 and 41 and 19 and 46 and 115 and 97
same,UPDRS-III score,"PDD or DLB participants [2]; 300 mg oral daily, Week-12",9 and 11 and 8 and 18 and 67 and 47
same,"UPDRS-III score, AVG","PDD or DLB participants [2]; 300 mg oral daily, Week-16, group AVG (Screening AVG 30.6)",27.8
same,"UPDRS-I-IV score, AVG","PDD or DLB participants [2]; 300 mg oral daily, Week-16, group AVG (Screening AVG 62.5)",58.8
same,UPDRS-I-IV score,"PDD or DLB participants [2]; 300 mg oral daily, Week-16",33 and 46 and 17 and 49 and 113 and 95
same,UPDRS-III score,"PDD or DLB participants [2]; 300 mg oral daily, Week-16",13 and 16 and 6 and 21 and 67 and 44
same,"UPDRS-III score, AVG","PDD or DLB participants [2]; 300 mg oral daily, Week-20, group AVG (Screening AVG 30.6)",26.8
same,"UPDRS-I-IV score, AVG","PDD or DLB participants [2]; 300 mg oral daily, Week-20, group AVG (Screening AVG 62.5)",55.3
same,UPDRS-I-IV score,"PDD or DLB participants [2]; 300 mg oral daily, Week-20",23 and 41 and 16 and 54 and 106 and 92
same,UPDRS-III score,"PDD or DLB participants [2]; 300 mg oral daily, Week-20",7 and 16 and 21 and 69 and 41
same,"UPDRS-III score, AVG","PDD or DLB participants [2]; 300 mg oral daily, Week-24, group AVG (Screening AVG 30.6)",27
same,"UPDRS-I-IV score, AVG","PDD or DLB participants [2]; 300 mg oral daily, Week-24, group AVG (Screening AVG 62.5)",51.6
same,UPDRS-I-IV score,"PDD or DLB participants [2]; 300 mg oral daily, Week-24",20 and 28 and 15 and 45 and 107 and 95
same,UPDRS-III score,"PDD or DLB participants [2]; 300 mg oral daily, Week-24",9 and 12 and 6 and 21 and 70 and 44
same,Average decrease in UPDRS-III (motor),PDD or DLB participants [2]; 300 mg oral daily,3.6 points
